Data on ten molecules can be found in patent publication US20260191845A1, “PYRIDINE-2-THIOL 1-OXIDE DERIVATIVES AND THEIR USE FOR TREATMENT OF MAMMALIAN INFECTIONS CAUSED BY MYCOBACTERIUM OR FUNGI” (priority 2022, published 2026).

In brackets after ≈: the same amount, converted by molar mass. Like-named read-outs stand apart in the source and are kept apart here.

Test [1] has as its system Penicillium notatum. Kind of test: Antifungal agar well diffusion assay. The settings on record: 20 μL water solution in 4 mm well. (In general: A growth-free zone around the sample is the usual read-out of agar diffusion tests.)
Description: (§1) The well diffusion test was performed using Casitone agar. The inoculum used was prepared using the Candida or Aspergillus strains from a 24-hour culture on Sabouraud dextrose agar, a suspension was made in a sterile saline solution (0.85%). The turbidity of the suspension was adjusted with a spectrophotometer at 530 nm to obtain a final concentration to match that of a 0.5 McFarland standard (0.5-2.5×10^3). 20 mL of Bacto-casitone were melted, cooled to 55° C. and then inoculated with 1 mL of the organism suspension. The inoculated agar was poured into the assay plate (9 cm in diameter) and allowed to cool down on a leveled surface.
For test [2], the system named is Candida albicans H8. Nature of the test: Antifungal agar well diffusion assay. The settings on record: 20 μL water solution in 4 mm well.
Description: as §1
In test [3] the test system is Aspergillus niger. Kind of test: Antifungal agar well diffusion assay. The settings on record: 20 μL water solution in 4 mm well.
Description: as §1
In test [4] the test system is Sporobolomyces salmonicolor. Nature of the test: Antifungal agar well diffusion assay. The note with it: 20 μL water solution in 4 mm well.
Description: as §1
The subject of test [5] is Mycobacterium abscessus ATCC 19977. Kind of test: REMA MIC90 against M. abscessus ATCC 19977. It is filed as cell-based. The note with it: Mycobacteroides abscessus. As to the method: Briefly, serial 2-fold dilutions of drug are prepared in 96-well microtiter plates (Fluoronunc, Thermo Fisher, Waltham, MA, USA) in 100 μL of Middlebrook 7H9 medium (Difco), supplemented with 10% OADC without addition of Tween 80. Then, M. abscessus log-phase cultures were diluted (OD600=0.02) and added in the 96-well microtiter plate. Growth controls containing no compound and sterile controls without inoculum are also included. […] After 1 day of incubation at 37° C., 10 μL of resazurin (0.025% w/v) is added to each well, and bacterial viability is assessed after a further 24 h of incubation using a Fluoroskan™ Microplate Fluorometer (Thermo Fisher Scientific, Waltham, MA, USA; excitation=544 nm, emission=590 nm). […] Results are expressed as the average of at least three independent replicates and presented on the following Table 1.

Where [6] appears, read: ATCC19977, MIC90, REMA, Table 1, read-out: MIC in M. abscessus ATCC 19977.
Where [7] appears, read: ATCC19977, read-out: MIC in M. abscessus ATCC 19977.

In the case of `C[C@@H]1[C@H](O)[C@@H](C)/C=C/C=C/C=C/C=C/C=C/C=C/C=C/[C@H](O[C@@H]2O[C@H](C)[C@@H](O)[C@H](N)[C@@H]2O)C[C@@H]2O[C@](O)(C[C@@H](O)C[C@@H](O)[C@H](O)CC[C@@H](O)C[C@@H](O)CC(=O)O[C@H]1C)C[C@H](O)[C@H]2C(=O)O` [Amph. B, reference compound], the “Inhibition Zone of Test Microorganism” value amounted to 12 mm in test [1], 22 mm in test [2], 17 mm in test [3] and 15 mm in test [4].

As a reminder, the MIC is the lowest concentration that inhibits growth of the organism. Regarding `CCOC(=O)c1ccc(S)[n+]([O-])c1` [Compound 1, Ethyl 6-mercaptonicotinate 1-oxide], the “Inhibition Zone of Test Microorganism” value in test [1] came out at 17 mm; in test [2], 56 mm; in test [3], 26 mm; in test [4], 43 mm. Also, the MIC in test [5] (setting [6]) amounted to 125 µg/mL (≈ 627 µM).

As to `COC(=O)c1ccc(S)[n+]([O-])c1` [Compound 3, Methyl 6-mercaptonicotinate 1-oxide], the MIC in test [5] (setting [6]) was determined as 250 µg/mL (≈ 1350 µM).

For the molecule `COC(=O)c1ccc([S-])[n+]([O-])c1.[Na+]` [Compound 4, Sodium 5-(methoxycarbonyl)pyridine-2-thiolate 1-oxide], in test [5] (setting [6]), the MIC is 250 µg/mL.

For `[Na+].[O-][n+]1cc(C(F)(F)F)ccc1[S-]` [Compound 5, Sodium 5-(trifluoromethyl)pyridine-2-thiolate 1-oxide], the “Inhibition Zone of Test Microorganism” value in test [1] was 15 mm; in test [2], 49 mm; in test [3] it was 22 mm; in test [4], 40 mm. Further, the MIC in test [5] (setting [7]) turned out to be 250 µg/mL.

In the case of `NC(=O)c1ccc([S-])[n+]([O-])c1.[K+]` [Compound 6, Potassium 5-(aminocarbonyl)pyridine-2-thiolate 1-oxide], in test [5] (setting [7]), the MIC came to 500 µg/mL.

With `O=C(c1ccc([S-])[n+]([O-])c1)N1CCCCC1.[K+]` [Compound 7, Potassium 5-(piperidin-1-ylcarbonyl)pyridine-2-thiolate 1-oxide], the “Inhibition Zone of Test Microorganism” value was 15 mm in test [1], 52 mm in test [2], 23 mm in test [3] and 43 mm in test [4]. In addition, the MIC in test [5] (setting [7]) was determined as 1000 µg/mL.

For the molecule `CN(C)C(=O)c1ccc(S)[n+]([O-])c1` [Compound 8, 6-Mercapto-N,N-dimethylnicotinamide 1-oxide], in test [5] (setting [6]), the MIC was 500 µg/mL (≈ 2520 µM).

For the molecule `CN(C)C(=O)c1ccc([S-])[n+]([O-])c1.[Na+]` [Compound 9, Sodium 5-[(dimethylamino)carbonyl]pyridine-2-thiolate 1-oxide], the MIC in test [5] (setting [6]) came to 500 µg/mL.

Turning to `CC(C)OC(=O)c1ccc([S-])[n+]([O-])c1.[Na+]` [Compound 10, Sodium 5-(isopropoxycarbonyl)pyridine-2-thiolate 1-oxide], the MIC in test [5] (setting [6]) was 500 µg/mL.
